Measured values published in patent US11186589B2, “Cyanoindoline derivatives as NIK inhibitors” (Janssen Pharmaceutica NV, priority 2016, dated 2021).
Like-named read-outs stand apart in the source and are kept apart here.

What was measured:
[1] = test system: KMS12-BM cells; assay: Antiproliferative activity on KMS12-BM (NIK WT) multiple myeloma cells (CellTiter-Glo); type: cell-based, human; settings: 96 hr treatment, averaged values, read-out: KMS-12 Proliferation inhibition (IC50 (nM))
Description: (§1) Determination of Antiproliferative Activity on JJN-3 (NIK Translocated) and KMS12-BM (NIK WT) Multiple Myeloma Cells
(§2) All compounds tested were dissolved in DMSO and further dilutions were made in culture medium. Final DMSO concentration was 0.3% (v/v) in cell proliferation assays. Viability was assessed using CellTiter-Glo cell viability assay kit (Promega). The human JJN-3 and KMS12-BM cells (DSMZ) were cultured in RPMI 1640 medium supplemented with 2 mM L-glutamine, and 10% fetal calf serum (PAA). Cells were routinely kept as suspension cells at 37° C. in a humidified 5% CO2 atmosphere. Cells were passaged at a seeding density of 0.2×10^6/ml twice a week. Cells were seeded in black tissue culture treated 96-well plates (Perkin Elmer). Densities used for plating ranged from 15000 (JJN3) to 20000 (KMS12BM) cells per well in a total volume of […]. Drugs and/or solvents were added (15 μl) to a final volume of 150 μl. Following 96 hr of treatment, plates were removed from the incubator and allowed to equilibrate to room temperature for approx 10 min. 75 μl CellTiter-Glo reagent was added to each well that was then covered (Perkin Elmer Topseal) and shaken on plate shaker for 10 min. Luminescence was measured on a HTS Topcount (Perkin Elmer). Within an experiment, the results for each treatment were the mean of 2 replicate wells. For initial screening purposes, compounds were tested using a 9 point dilution curve (serial 1:3 dilutions). For each experiment, controls (containing no drug) and a blank incubation (containing cells read at the time of compound addition) were run in parallel. The blank value was subtracted from all control and sample values. For each sample, the mean value for cell growth (in relative light units) was expressed as a percentage of the mean value for cell growth of the control.

[2] = test system: JJN-3 cells; assay: Antiproliferative activity on JJN-3 (NIK translocated) multiple myeloma cells (CellTiter-Glo); type: cell-based, human; settings: JJN-3 (NIK translocated) cells, 96 hr treatment, averaged values, read-out: JJN-3 Proliferation inhibition (IC50 (nM))
Description: as §1, §2

[3] = biological target: NIK/MAP3K14 (Homo sapiens (Human), UniProt Q99558); assay: Inhibition of auto-phosphorylation of recombinant human NF-kappaB-inducing kinase (NIK/MAP3K14) activity (AlphaScreen); type: biochemical; settings: averaged values over all measurements on all batches, 25 microM ATP
Description: Inhibition of Auto-Phosphorylation of Recombinant Human NF-kappaB-Inducing Kinase ([…]) Activity (AlphaScreen®)
NIK/MAP3K14 auto-phosphorylation activity was measured using the AlphaScreen® (αscreen) format (Perkin Elmer). All compounds tested were dissolved in dimethyl sulfoxide (DMSO) and further dilutions were made in assay buffer. Final DMSO concentration was […] in assays. Assay buffer was 50 mM Tris pH 7.5 containing 1 mM EGTA (ethylene glycol tetraacetic acid), 1 mM DTT (dithiothreitol), 0.1 mM Na3VO4, 5 mM MgCl2, 0.01% Tween® 20. Assays were carried out in 384 well Alphaplates (Perkin Elmer). Incubations consisted of compound, 25 microM Adenosine-5′-triphosphate (ATP), and 0.2 nM NIK/MAP3K14. Incubations were initiated by addition of GST-tagged NIK/MAP3K14 enzyme, carried out for 1 h at 25° C. and terminated by addition of stop buffer containing anti-phospho-[…] Ser176/180 antibody. Protein A Acceptor and Glutathione-Donor beads were added before reading using an EnVision® Multilabel Plate Reader (Perkin Elmer). Signal obtained in the wells containing blank samples was subtracted from all other wells and IC50's were determined by fitting a sigmoidal curve to % inhibition of control versus Log10 compound concentration.

[4] = test system: P-IKKα levels in L363 cells; assay: Effect of compounds on P-IKKα levels in L363 (NIK translocated multiple myeloma) cells; type: cell-based, human; settings: 2 hr treatment, averaged values, read-out: Inhibition of pIKKα_L-363 (IC50 (nM))
Description: Effect of Compounds on P-IKKα Levels in L363 (NIK Translocated Multiple Myeloma) Cells
All compounds tested were dissolved in DMSO and further dilutions were made in culture medium. Final DMSO concentration was 1% (v/v) in cell assays. The human L363 cells (ATCC) were cultured in RPMI 1640 medium supplemented with GlutaMax and 10% fetal calf serum (PAA). Cells were routinely maintained at densities of 0.2×10^6 cells per ml—1×10^6 cells per ml at 37° C. in a humidified 5% CO2 atmosphere. Cells were passaged twice a week splitting back to obtain the low density. Cells were seeded in 96 well plates (Nunc 167008) at 2×10^6 per ml media in a volume of 75 μl per well plus 25 μl 1 μg/ml recombinant human B-cell activating factor (BAFF/BLyS/TNFSF13B). Seeded cells were incubated at 37° C. in a humidified 5% CO2 atmosphere for 24 hr. Drugs and/or solvents were added (20 μl) to a final volume of 120 μl. Following 2 hr treatment plates were removed from the incubator and cell lysis was achieved by the addition of 30 μl 5× lysis buffer followed by shaking on a plate shaker at 4° C. for 10 min. At the end of this incubation lysed cells were centrifuged at 800×g for 20 min at 4° C. and the lysate was assessed for P-IKKα levels by sandwich immuno-assay carried out in anti-rabbit antibody coated Mesoscale plates. Within an experiment, the results for each treatment were the mean of 2 replicate wells. For initial screening purposes, compounds were tested using an 8 point dilution curve (serial 1:3 dilutions). For each experiment, controls (containing MG132 and BAFF but no test drug) and a blank incubation (containing MG132 and BAFF and 10 μM ADS125117, a test concentration known to give full inhibition) were run in parallel. The blank incubation value was subtracted from all control and sample values. To determine the IC50 a sigmoidal curve was fitted to the plot of % inhibition of control P-IKKα levels versus Log10 compound concentration.

Sequence of NIK/MAP3K14 (Q99558 whole entry): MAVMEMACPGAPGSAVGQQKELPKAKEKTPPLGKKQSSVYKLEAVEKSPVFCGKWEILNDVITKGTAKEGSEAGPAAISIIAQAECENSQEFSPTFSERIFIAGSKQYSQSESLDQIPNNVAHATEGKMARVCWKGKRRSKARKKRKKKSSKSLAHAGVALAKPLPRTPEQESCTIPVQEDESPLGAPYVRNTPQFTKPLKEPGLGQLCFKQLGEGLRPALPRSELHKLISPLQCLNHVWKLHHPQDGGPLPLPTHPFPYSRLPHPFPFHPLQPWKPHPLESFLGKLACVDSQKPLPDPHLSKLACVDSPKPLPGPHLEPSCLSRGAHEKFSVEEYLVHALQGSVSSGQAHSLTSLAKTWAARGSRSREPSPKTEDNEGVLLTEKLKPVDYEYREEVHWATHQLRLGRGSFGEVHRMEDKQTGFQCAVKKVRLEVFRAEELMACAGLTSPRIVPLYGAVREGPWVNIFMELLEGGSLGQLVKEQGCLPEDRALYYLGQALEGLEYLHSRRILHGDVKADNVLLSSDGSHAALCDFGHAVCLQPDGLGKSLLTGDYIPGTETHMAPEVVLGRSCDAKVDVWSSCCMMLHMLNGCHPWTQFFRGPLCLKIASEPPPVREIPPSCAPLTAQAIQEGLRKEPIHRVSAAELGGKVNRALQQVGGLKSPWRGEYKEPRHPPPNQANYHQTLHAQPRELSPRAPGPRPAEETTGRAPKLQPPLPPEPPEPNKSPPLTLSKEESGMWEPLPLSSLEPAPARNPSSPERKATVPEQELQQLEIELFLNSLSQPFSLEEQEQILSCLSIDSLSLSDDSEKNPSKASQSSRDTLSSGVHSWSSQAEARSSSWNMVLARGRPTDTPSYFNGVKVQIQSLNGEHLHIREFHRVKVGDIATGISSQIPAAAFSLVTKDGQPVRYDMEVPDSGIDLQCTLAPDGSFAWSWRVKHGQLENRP

IC50 [1] [nM] | IC50 [2] [nM] | IC50 [3] [nM] | IC50 [4] [nM] | IC50 ([1]; Homo sapiens, KMS-12-BM, 96 h) [nM] | IC50 ([2]; Homo sapiens, JJN-3, 96 h) [nM] | IC50 ([4]; Homo sapiens, L-363, 2 h) [nM] | Structure (SMILES)
~2240 | 45 | 6.9 | 2 | – | – | – | CC(C)C1CCn2ncc(Nc3nccc(-c4cc(C#N)c5c(c4)[C@@](C)(CO)CN5)n3)c2O1 (single isomer, unassigned) [Compound 23b]
– | – | 5 | – | ~7760 | ~2140 | 63 | CC1(CO)COc2c(Nc3nccc(-c4cc(C#N)c5c(c4)[C@@](C)(CO)CN5)n3)cnn2C1 (mixture of isomers) [Compound 31b]
– | – | 6.2 | 2 | – | – | – | CC1CC(C)n2ncc(Nc3nccc(-c4cc(C#N)c5c(c4)C(C)(CO)CN5)n3)c2O1 (racemic) [Compound 20b]
– | – | 10.5 | – | – | – | 14 | CN(C)C(=O)c1cc2cc(Nc3nccc(-c4cc(C#N)c5c(c4)C(C)(C)CN5)n3)ccc2[nH]1 [Compound 12c]
– | – | 5.9 | – | – | – | 8 | CC1OCCn2nc(Nc3nccc(-c4cc(C#N)c5c(c4)C(C)(C)CN5)n3)cc21 (stereo not drawn) [Compound 32b]
– | – | 6.2 | – | – | – | 3 | COc1cc2[nH]ccc2cc1Nc1nccc(-c2cc(C#N)c3c(c2)C(C)(CO)CN3)n1 (stereo not drawn) [Compound 13c]
– | – | 39.8 | – | ~1820 | 1580 | – | COCCn1nc2c(c1Nc1nccc(-c3cc(C#N)c4c(c3)[C@@](C)(CO)CN4)n1)CCC2 [Compound 11b]
– | – | 4.3 | – | 427 | 16 | – | CNC(=O)CCn1ccc2c(Nc3nccc(-c4cc(C#N)c5c(c4)C(C)(CO)CN5)n3)cc(Cl)cc21 (stereo not drawn) [Compound 11c]

Further lines, the compound ahead of its results:

Structure (SMILES) | IC50 [1] [nM] | IC50 [2] [nM] | IC50 [3] [nM] | IC50 [4] [nM] | IC50 ([1]; Homo sapiens, KMS-12-BM, 96 h) [nM] | IC50 ([2]; Homo sapiens, JJN-3, 96 h) [nM] | IC50 ([4]; Homo sapiens, L-363, 2 h) [nM]
CCCCCc1cc2c(cc1Nc1nccc(-c3cc(C#N)c4c(c3)[C@@](C)(CO)CN4)n1)CCN(C)CC2 (mixture of isomers) [Compound 27] | – | – | 7.1 | – | 1380 | 871 | ~1200
CN1CCc2ncc(Nc3nccc(-c4cc(C#N)c5c(c4)[C@@](C)(CO)CN5)n3)cc2C1 [Compound 29] | – | – | 3.4 | – | 51 | ~27 | 16
Cc1c(Nc2nccc(-c3cc(C#N)c4c(c3)C(C)(CO)CN4)n2)ccc2c1CC(=O)N2 (stereo not drawn) [Compound 42] | – | – | 8.9 | 36 | – | – | –
COc1cc2c(cc1Nc1nccc(-c3cc(C#N)c4c(c3)C(C)(CO)CN4)n1)CCN2C(=O)CN(C)C (stereo not drawn) [Compound 40] | – | – | 4.3 | – | – | – | 3
CN(C)CC(=O)N1CCc2c1ccc(Nc1nccc(-c3cc(C#N)c4c(c3)C(C)(CO)CN4)n1)c2F (stereo not drawn) [Compound 38] | – | – | 3.4 | – | – | – | 12
COc1cc2c(cc1Nc1nccc(-c3cc(C#N)c4c(c3)C(C)(CO)CN4)n1)NC(=O)CC2 (stereo not drawn) [Compound 59] | – | – | 12.9 | – | – | – | 37
CN(C)C(=O)C1Cc2cc(Nc3nccc(-c4cc(C#N)c5c(c4)C(C)(C)CN5)n3)ccc2N1 (stereo not drawn) [Compound 43] | – | – | 6.6 | – | – | – | 5
CC1(CO)CNc2c(C#N)cc(-c3ccnc(Nc4ccc5c(c4F)CCN5)n3)cc21 (stereo not drawn) [Compound 37] | – | – | 4.3 | – | – | – | 9
CC(=O)N1CCc2c1ccc(Nc1nccc(-c3cc(C#N)c4c(c3)C(C)(CO)CN4)n1)c2F (stereo not drawn) [Compound 36] | – | – | 3.7 | – | – | – | 16
CN1CCc2ncc(Nc3ncc(F)c(-c4cc(C#N)c5c(c4)[C@@](C)(CO)CN5)n3)cc2C1 [Compound 54] | – | – | – | – | ~9 | ~7 | 2
C[C@]1(CO)CNc2c(C#N)cc(-c3ccnc(Nc4cc5c(nc4C#CC4CC4)CCOC5)n3)cc21 [Compound 22] | – | – | 2240 | – | – | – | > 10000
COc1cc2c(cc1Nc1nccc(-c3cc(C#N)c4c(c3)C(C)(CO)CN4)n1)CCN2C(C)=O (stereo not drawn) [Compound 39] | – | – | 2.5 | – | – | – | 3
C[C@]1(CO)CNc2c(C#N)cc(-c3ccnc(Nc4cc5c(nc4OC4CCCC4)CCOC5)n3)cc21 [Compound 47] | – | – | 35.5 | – | – | – | 51
CN1CCc2nc(OCC3CC3)c(Nc3nccc(-c4cc(C#N)c5c(c4)[C@@](C)(CO)CN5)n3)cc2C1 [Compound 35] | – | – | 4.3 | – | – | – | 69
CN(C)C(=O)C(=O)N1CCc2c(Nc3nccc(-c4cc(C#N)c5c(c4)[C@@](C)(CO)CN5)n3)cc(Cl)cc21 [Compound 19] | – | – | 5 | – | ~692 | 6 | –
CC1(CO)CNc2c(C#N)cc(-c3ccnc(Nc4cc(Cl)cc5c4OCCC5)n3)cc21 (stereo not drawn) [Compound 4] | – | – | 26.9 | – | > 10000 | 107 | –
COCCCc1cc2c(cc1Nc1nccc(-c3cc(C#N)c4c(c3)[C@@](C)(CO)CN4)n1)CCN(C)CC2 [Compound 20] | – | – | 20.4 | – | 1480 | 372 | –
CC(C)Oc1nc2c(cc1Nc1nccc(-c3cc(C#N)c4c(c3)[C@@](C)(CO)CN4)n1)CN(C1CC1)CC2 [Compound 49] | – | – | 34.7 | – | – | – | 115
CC1(C)CNc2c(C#N)cc(-c3ccnc(Nc4cc(Cl)cc5[nH]ccc45)n3)cc21 [Compound 7c] | – | – | – | – | > 10000 | 537 | 72
COc1nc2c(cc1Nc1nccc(-c3cc(C#N)c4c(c3)[C@@](C)(CO)CN4)n1)CCN(C)C2 [Compound 53] | – | – | – | – | ~468 | 12 | 1
